Molecules are shown by their SMILES.

A short description of this data set: gradient 5% acetonitrile 3 min, to 50% in 2 min, to 85% in 15 min, held 3 min, 100 µL/min. The following applies: column: Zorbax Extend-C18 2.1 x 50 mm; eluents: water / acetonitrile, 0.1% formic acid. The method, boiled down:
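Retention times of pure standards were taken from adduct peaks that were selected by computer and manually inspected. Over 3 months, mixtures of ~100 molecules were run by HPLC–quadrupole time-of-flight mass spectrometry in positive and negative ionization mode. The Zorbax Extend-C18 column (2.1 × 50 mm, 1.8 μm) ran at 100 μL/min in water and acetonitrile, each containing 0.1% formic acid, with 40 μL dead volume and 900 μL dwell volume.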
In turn, `Cc1cccc(CN2CCC(CNC(=O)C3CCCN(c4nccc(C)n4)C3)CC2)c1` (stereo not given) came in with an RP-LC retention time of 615 s. As to `O=C(Nc1ccc(OCC(=O)N2CCN(c3ncccn3)CC2)nc1)C1CC1`, the RP-LC retention time was found to be 624 s. `Cc1c(Cl)cccc1-c1ccc(CNCC2CCCO2)o1` (stereo not given) displayed an RP-LC retention time of 734 s. Molecule `CCc1ccc(NS(=O)(=O)c2ccc(-c3nnc(C4CCC4)o3)o2)cc1` yielded an RP-LC retention time of 996 s. Take `Cc1ncc2n1CCN(S(=O)(=O)c1ccccc1)C2`: the RP-LC retention time turned out to be 584 s. The same measure for `COCCn1nc2n(c1=O)CCC1(CC2)CCN(C(=O)C2CC=CC2)CC1`: 658 s; for `Cc1ccc(-c2cc3c(=O)n(Cc4noc(CN5CCN(C)CC5)n4)ccn3n2)cc1`: 659 s; for `COc1ccc(-c2n[nH]c3c2C(c2ccc(OC)cc2OC)NC3=O)cc1` (stereo not given): 736 s.

Molecule `Cc1cc(S(=O)(=O)Nc2cccn3c(C4CCC4)nnc23)ccc1F` returned an RP-LC retention time of 822 s. For `CC(C)n1cnnc1CC1CCN(S(=O)(=O)Cc2ccccc2)C1` (stereo not given), the RP-LC retention time turned out to be 659 s. `CCOc1ccc(NS(=O)(=O)c2ccc(-c3c(C)noc3C)cc2)cc1`: the RP-LC retention time was determined as 934 s.

For the molecule `CC(=O)c1ccc(NC(=O)c2cc(C(F)(F)F)n(C)n2)cc1`, the RP-LC retention time amounted to 871 s. The molecule `O=S(=O)(Nc1ccc(Oc2nc3ccccc3n3cnnc23)cc1)c1cccc2nsnc12` displayed an RP-LC retention time of 755 s. `COc1cccc(NC(=O)c2cnc3c(c2)c(=O)n(C)c(=O)n3C)c1` had an RP-LC retention time of 795 s. As to `COc1ccc(Cl)cc1N(C)C(=O)C(=O)Nc1ccc2nc3n(c(=O)c2c1)CCCCC3`, the RP-LC retention time was determined as 822 s. In turn, `CC(=O)Nc1ccc(CCc2nc3ccc(C(=O)NCCc4c[nH]c5ccccc45)cc3[nH]2)cc1` displayed an RP-LC retention time of 644 s. Molecule `CCOC(=O)C1CCN(c2cc(-c3nc(-c4ccccc4)no3)c3ccccc3n2)CC1` displayed an RP-LC retention time of 1370 s. `CNc1nc(SC)n(C)c(=O)c1N=O` came in with an RP-LC retention time of 667 s.

As for `CN1CCC(NC(=O)C2CCc3sc(C(=O)N4CCOCC4)cc3C2)CC1` (stereo not given), the RP-LC retention time stood at 606 s.

Molecule `Cc1ccc(-n2c(=O)n(CC(=O)N3CCCCC3)c3cccnc32)cc1` showed an RP-LC retention time of 780 s. For `Cc1cccc(C)c1NC(=O)N1CCN(CCn2c(C(C)C)nc3cccnc32)CC1`, the RP-LC retention time was 602 s. To `O=C(OCCN1CCOCC1)C1(c2ccccc2)CCCCC1` belongs 755 s.

On to `CCn1ccc(C(=O)Nc2cnc(-c3cccc(Cl)c3)nc2)n1`, for which the RP-LC retention time was found to be 1020 s.

`O=C(c1ccoc1)N1CCCC1c1nc(-c2cccc(C(F)(F)F)c2)no1` (stereo not given) yielded an RP-LC retention time of 996 s. Molecule `CCc1noc(NC(C)=O)c1-c1ccc(OC)c(S(=O)(=O)Nc2ccc(C)c(C)c2)c1` had an RP-LC retention time of 846 s. In the case of `CCOc1ccccc1C(=O)N1CCC2(CC1)NC(=O)c1ccc(Cl)cc1N2`, the RP-LC retention time amounted to 790 s. Turning to `O=C(CN1CCc2ccccc2C1C(=O)N1CCCC1)NCc1cccc(C(F)(F)F)c1` (stereo not given), the RP-LC retention time was 838 s. In the case of `O=C(CSc1nc(-c2ccccc2)c(-c2ccccc2)o1)NCCCO`, the RP-LC retention time stood at 760 s. Molecule `CC(C)C(=O)N1CCC2(C1)c1nc[nH]c1CCN2CC1CCCCC1` (stereo not given) registered an RP-LC retention time of 608 s. On to `Cc1ccc(N2CCC(NC(=O)c3cccc(C#N)c3)C2=O)cc1` (stereo not given), for which the RP-LC retention time worked out at 813 s.

In turn, `CCS(=O)(=O)c1nc2ccc(NS(=O)(=O)c3cc(C)c(C)cc3C)cc2s1` had an RP-LC retention time of 972 s. Regarding `O=C(N[C@H]1C[C@@H]2C[C@H]1N(S(=O)(=O)c1ccc3c(c1)OCCO3)C2)c1cccs1`, the RP-LC retention time stood at 816 s. The same measure for `CCn1c(CCc2ccccc2NS(=O)(=O)c2cccc3nsnc23)nc2ccccc21`: 713 s; for `c1cc(CN2CCC(Oc3nccnc3N3CCOCC3)C2)ccn1` (stereo not given): 546 s. Molecule `CCCN(C)S(=O)(=O)c1cc(-c2nc(C(C)(C)C)cs2)cs1` registered an RP-LC retention time of 1330 s. To `O=C(CCn1cnc2cc(-c3noc(C4CC(=O)N(c5ccccc5)C4)n3)ccc21)N1CCCC1` (stereo not given) belongs 659 s. Regarding `COc1ccc2c(c1)c1ccc3c(c1n2C)C(=O)C=CC3=O`, the RP-LC retention time stood at 1120 s. `COC(=O)c1ccc(NC(=O)NCCn2c(C(F)(F)F)nc3cccnc32)cc1` gave an RP-LC retention time of 706 s.

Take `Cc1ccc(S(=O)(=O)N2CCc3c(c(-c4nnc(-c5ccccc5)o4)nn3C)C2)c(C)c1`: the RP-LC retention time is 1020 s. Molecule `CCOc1ccc(-c2noc(Cn3c(=O)n(CCCOC)c(=O)c4ccccc43)n2)cc1OC` showed an RP-LC retention time of 956 s. On to `COc1ccc(CNc2nc(NCc3ccc(OC)cc3)c3ncn(C(C)C)c3n2)cc1`, for which the RP-LC retention time is 809 s. To `COc1ccc(NC(=O)N(C)CCc2noc(-c3ccc(Cl)cc3)n2)c(OC)c1` belongs 959 s; to `COC(=O)c1ccc(NC(=O)N(C)c2ccccc2)cc1`, 771 s. `O=C(CN1C(=O)CCC1=O)N1CCC(Oc2nc3ccc(F)cc3s2)CC1`: the RP-LC retention time stood at 734 s. `Cc1nn2c(CNC(=O)c3cccc(Br)c3)c(C)nc2s1` yielded an RP-LC retention time of 662 s. The molecule `O=c1c2cc(-c3ccccc3Cl)nn2cnn1Cc1nc(-c2ccccc2)no1` yielded an RP-LC retention time of 1110 s. Turning to `COc1ccc(-n2ccn3cc(-c4cccc(Cl)c4)nc3c2=O)cc1`, the RP-LC retention time was found to be 873 s.

Molecule `Cc1cccc(-c2noc(Cn3ncn4nc(-c5ccc(C)cc5C)cc4c3=O)n2)c1` yielded an RP-LC retention time of 878 s. For the molecule `Cc1ccc(C)c(S(=O)(=O)NCC2CN(C)CC23CCCCC3)c1` (stereo not given), the RP-LC retention time worked out at 704 s. The molecule `c1cc(-c2noc(C3CCOC3)n2)cc(N2CCOCC2)n1` (stereo not given) showed an RP-LC retention time of 651 s. The same measure for `Cc1cc(C)n(-c2ccnc(NCc3cccnc3)n2)n1`: 588 s; for `CCCOc1nc2ccccc2nc1N1CCCC(C(=O)NCC2CCCO2)C1` (stereo not given): 1010 s; for `CNC(=O)C1CCCN(c2nc3ncn(CC(=O)Nc4cc(C)ccc4OC)c(=O)c3s2)C1` (stereo not given): 678 s. For the molecule `CCc1noc(NC(C)=O)c1-c1ccc(OC)c(S(=O)(=O)Nc2cc(Cl)ccc2C)c1`, the RP-LC retention time came out at 870 s.

`CCCNC(=O)N1CCCCC1c1n[nH]c(C)n1` (stereo not given) came in with an RP-LC retention time of 577 s. The same measure for `COc1ccc(-c2csc(Cc3nc(-c4ccc(Cl)cc4)no3)n2)cc1`: 1290 s; for `CC(=O)Nc1cccc(C(=O)NCCc2c[nH]c3ccc(F)cc23)c1`: 711 s; for `O=C1Nc2ccc(I)cc2C1=Cc1cc(Br)c(O)c(Br)c1`: 1090 s. `CC(C)N1C(=O)c2cccnc2Sc2cc(C(=O)NC3CCCC3)ccc21` gave an RP-LC retention time of 812 s. The molecule `CCNC(=O)Nc1ccc2c(c1)CN(CC1CCCCC1)CCO2` yielded an RP-LC retention time of 610 s.

`CN(Cc1cccs1)C(=O)NC(C)(C)C`: the RP-LC retention time amounted to 817 s. As to `Cc1ccc(-c2nc(NC(=O)c3cc(C)on3)sc2C)c(C)c1`, the RP-LC retention time is 1120 s. Molecule `COc1ccc(C(=O)Oc2ccc[nH]c2=O)cc1` had an RP-LC retention time of 721 s. The same measure for `CC(=O)c1cccc(NC(=O)CN2C(=O)C3CCCCN3c3ccc(C(=O)N4CCCC4)cc32)c1` (stereo not given): 780 s. The same measure for `CCOC(=O)c1ccc(NC(=O)COc2cccc3ccc(N4CCOCC4)nc23)cc1`: 654 s; for `Cc1c(Cl)cccc1NC(=O)Cn1nc(N(C)C)c2ccccc2c1=O`: 906 s. `Cc1cc(C)cc(NC(=O)Nc2nccn(-c3cc(Cl)ccc3C)c2=O)c1` had an RP-LC retention time of 1150 s. Turning to `O=C1N(CN2CCN(c3ccccn3)CC2)c2ccccc2C12OCCCO2`, the RP-LC retention time turned out to be 572 s.

On to `COC(=O)c1ccc(Cl)cc1NC(=O)N1CCN(CCn2c(C)nc3cccnc32)CC1`, for which the RP-LC retention time worked out at 657 s.

Molecule `COC(=O)c1ccc(NC(=O)NCc2noc3ccccc23)cc1` displayed an RP-LC retention time of 824 s. With `O=C(Nc1ccc(-n2cnc(C(=O)N3CCC(Cc4ccccc4)CC3)c2)nc1)C1CC1`, the RP-LC retention time came out at 860 s. Molecule `CCn1c(=O)c(C)nc2cc(-c3noc(Cc4ccccc4Br)n3)ccc21` returned an RP-LC retention time of 1070 s. `Cn1cnnc1CC1CCN(C(=O)Nc2ccccc2)C1` (stereo not given) displayed an RP-LC retention time of 587 s. As for `O=C(NCCn1c(=O)n(Cc2ccccc2)c2cccnc21)c1ccc2c(c1)OCO2`, the RP-LC retention time came out at 773 s.

Take `CCN(CC)S(=O)(=O)c1ccc(Cl)c(-c2nnc(-c3ccccc3OC)o2)c1`: the RP-LC retention time is 1020 s. The same measure for `Cc1ccc(CNC(=O)C2CCCN(c3ncnc4c3oc3ccccc34)C2)cc1` (stereo not given): 807 s; for `O=c1ccc(-c2cccc(Cl)c2)nn1CCc1nc(-c2ccc(F)cc2)no1`: 1060 s. Molecule `CCOCCCNC(=O)N1CCC2(CC1)NC(=O)c1ccccc1O2` showed an RP-LC retention time of 652 s.

`Cc1cc(C)cc(NS(=O)(=O)c2cc(-c3cc(C(F)(F)F)on3)sc2C)c1` registered an RP-LC retention time of 1230 s.

In turn, `Cn1nccc1-c1cccc(-c2noc(-c3cncc(Br)c3)n2)c1` registered an RP-LC retention time of 1100 s.

For the origin of these results see the METLIN SMRT retention time set (Domingo-Almenara et al. 2019).
